This is an account of results in patent US20250243407A1, “LIQUID CRYSTAL COMPOSITION, OPTICALLY ANISOTROPIC FILM, OPTICAL FILM, POLARIZING PLATE, IMAGE DISPLAY APPARATUS, AND POLYMERIZABLE COMPOUND” (FUJIFILM Corporation, priority 2022, published 2025).

Data set [1] can be described thus: Solubility: presence or absence of precipitation over time in cyclopentanone/methyl ethyl ketone. The format is physicochemical. To be noted: 50 mg, cyclopentanone/methyl ethyl ketone 3/1 by weight, solid content 30 wt %, dissolved at 60° C., cooled to room temperature (25° C.), visual precipitation over time. As to the method:
50 mg of each of the liquid crystal compositions prepared in a 1.5 mL sample bottle was weighed, and a solvent (mixture of cyclopentanone/methyl ethyl ketone at a weight ratio of 3/1) was added thereto until the solid content was 30 wt % ([…]).
Next, the mixture was heated to 60° C. and stirred to be dissolved, cooled to room temperature (25° C.), and the presence or absence of precipitation was visually confirmed over time after cooling and evaluated according to the following standard.
C: precipitation occurred within 24 hours at room temperature.

The nature of data set [2]: Liquid crystallinity: phase transition temperature measured using a polarization microscope. The format is physicochemical. The method, then:
A phase transition temperature of the prepared liquid crystal composition was measured using a polarization microscope.

As to `C=CC(=O)OCC(C)(C)COC(=O)CCC(=O)OCCc1ccc(OC(=O)C2CCC(C(=O)Oc3c(C(C)(C)C)cc(OC(=O)C4CCC(C(=O)Oc5cc(C(C)(C)C)c(OC(=O)C6CCC(C(=O)Oc7ccc(CCOC(=O)CCC(=O)OCC(C)(C)COC(=O)C=C)cc7)CC6)c6c5SC(=C(C#N)C#N)S6)CC4)c4c3SC(=C(C#N)C#N)S4)CC2)cc1` (centres unmarked) [Comparative Example 1], in data set [1], the Solubility entry is recorded as “C (precipitation occurred within 24 hours at room temperature)”. Moreover, the “Liquid crystallinity: phase transition temperature between isotropic liquid (Iso) and crystal (Cr)” value in data set [2] is “Iso 178 Cr ° C”.
